Laboratory results: patent US20180256595A1, “AGENT FOR ENHANCING OCULAR HYPOTENSIVE EFFECT” (KOWA COMPANY, LTD., priority 2015, published 2018)

Experiment: Multi-center open-label study: continuous ocular instillation of 0.4% ripasudil ophthalmic solution twice daily for 52 weeks, change in intra-ocular pressure
Format: in vivo, patients
Method: A multi-center open-label study was performed using a cohort for a monotherapy of ripasudil ophthalmic solution (173 cases) and a cohort for an additive therapy of a ripasudil ophthalmic solution in combination with another agent (181 cases) (additive therapy to a PG related drug: 62 cases, additive therapy to a β blocker: 60 cases, additive therapy to a combination drug of said PG-related drug and said β blocker: 59 cases). Patients with primary open angle glaucoma, ocular hypertension, and exfoliation glaucoma (one type of secondary glaucoma to cause aqueous humor outflow resistance due to exfoliation substances in aqueous humor or the like) having a pre-treatment intra-ocular pressure of 15 mmHg or higher or a post-treatment intra-ocular pressure of 15 mmHg or higher at the time after treatment of a PG-related drug, a β-blocker, or a combination drug of the PG-related drug and β-blocker were enrolled. A 0.4% ripasudil ophthalmic solution was dropped into an eye twice daily for 52 weeks. In order to evaluate intra-ocular pressure-lowering effect over time caused by long-term ocular instillation, the amount of change in intra-ocular pressure (least mean square value) in a second half of ocular instillation (32 weeks to 52 weeks) with respect to a first half of ocular instillation (4 weeks to 28 weeks) was examined. Statistical analysis was performed using SAS (SAS Inc., Cary, N.C.) by a least squares method based on a mixed effect model.

[1] = 2 hours after ocular instillation, baseline intra-ocular pressure 15≤ to <18 mmHg
[2] = 2 hours after ocular instillation, baseline intra-ocular pressure 18≤ to <−21 mmHg
[3] = 2 hours after ocular instillation, baseline intra-ocular pressure 21≤ mmHg
[4] = 2 hours after ocular instillation, whole cohort, least mean square value ± SE
[5] = before ocular instillation (immediately before ocular instillation in the morning), whole cohort, least mean square value ± SE
[6] = before ocular instillation, baseline intra-ocular pressure 15≤ to <18 mmHg
[7] = before ocular instillation, baseline intra-ocular pressure 18≤ to <−21 mmHg
[8] = before ocular instillation, baseline intra-ocular pressure 21≤ mmHg

SMILES: C[C@H]1CNCCCN1S(=O)(=O)c1cccc2cncc(F)c12 [Ripasudil only, (S)-(−)-1-(4-fluoro-5-isoquinolinesulfonyl)-2-methyl-1,4-homopiperazine]
- Change from the baseline intra-ocular pressure First half (Week 4-28) [1]: −2.86 ± 0.24 mmHg
- Change from the baseline intra-ocular pressure Second half (Week 32-52) [1]: −3.35 ± 0.25 mmHg
- Difference (second half with respect to first half) [1]: −0.49 ± 0.12 mmHg
- Change from the baseline intra-ocular pressure First half (Week 4-28) [2]: −3.24 ± 0.22 mmHg
- Change from the baseline intra-ocular pressure Second half (Week 32-52) [2]: −3.71 ± 0.22 mmHg
- Difference (second half with respect to first half) [2]: −0.47 ± 0.11 mmHg
- Change from the baseline intra-ocular pressure First half (Week 4-28) [3]: −3.55 ± 0.40 mmHg
- Change from the baseline intra-ocular pressure Second half (Week 32-52) [3]: −4.39 ± 0.41 mmHg
- Difference (second half with respect to first half) [3]: −0.84 ± 0.17 mmHg
- Difference (second half with respect to first half) (2 hours after ocular instillation, whole cohort): −0.58 ± 0.08 mmHg
- Change from the baseline intra-ocular pressure First half (Week 4-28) [4]: −3.23 ± 0.17 mmHg
- Change from the baseline intra-ocular pressure Second half (Week 32-52) [4]: −3.81 ± 0.17 mmHg
- Change from the baseline intra-ocular pressure Second half (Week 32-52) (2 hours after ocular instillation, whole cohort, least mean square value ± SE, listed as ripasudil): −3.81 mmHg
- Difference (second half with respect to first half) (2 hours after ocular instillation, whole cohort, listed as ripasudil): −0.58 mmHg
- Difference (second half with respect to first half) (before ocular instillation (immediately before ocular instillation in the morning), whole cohort): −0.49 ± 0.07 mmHg
- Change from the baseline intra-ocular pressure First half (Week 4-28) [5]: −2.12 ± 0.15 mmHg
- Change from the baseline intra-ocular pressure Second half (Week 32-52) [5]: −2.61 ± 0.15 mmHg
- Change from the baseline intra-ocular pressure Second half (Week 32-52) (before ocular instillation (immediately before ocular instillation in the morning), whole cohort, least mean square value ± SE, listed as ripasudil): −2.61 mmHg
- Difference (second half with respect to first half) (before ocular instillation (immediately before ocular instillation in the morning), whole cohort, listed as ripasudil): −0.49 mmHg
- Change from the baseline intra-ocular pressure First half (Week 4-28) [6]: −1.30 ± 0.25 mmHg
- Change from the baseline intra-ocular pressure Second half (Week 32-52) [6]: −1.70 ± 0.26 mmHg
- Difference (second half with respect to first half) [6]: −0.40 ± 0.12 mmHg
- Change from the baseline intra-ocular pressure First half (Week 4-28) [7]: −2.38 ± 0.16 mmHg
- Change from the baseline intra-ocular pressure Second half (Week 32-52) [7]: −2.66 ± 0.17 mmHg
- Difference (second half with respect to first half) [7]: −0.28 ± 0.11 mmHg
- Change from the baseline intra-ocular pressure First half (Week 4-28) [8]: −2.52 ± 0.34 mmHg
- Change from the baseline intra-ocular pressure Second half (Week 32-52) [8]: −3.42 ± 0.35 mmHg
- Difference (second half with respect to first half) [8]: −0.91 ± 0.16 mmHg
- Difference (second half with respect to first half) (before ocular instillation, baseline intra-ocular pressure 21≤ mmHg, listed as ripasudil): −0.91 mmHg
- intra-ocular pressure-lowering effect on long-term continuous administration (in words) (long-term continuous ocular instillation): exhibited a further intra-ocular pressure-lowering effect by continuous ocular instillation
